This passage reports Ki, Drug uptake and Activity results from ChEMBL document CHEMBL1641605, “Diphenylpropynone derivatives as probes for imaging β-amyloid plaques in Alzheimer's brains” (Bioorg Med Chem Lett, 2011).

The target of data set [1] is Amyloid-beta precursor protein (Homo sapiens, UniProt P05067). As to the kind of experiment: Displacement of [125I]DMIC from Amyloid beta (1 to 42) after 3 hrs by gamma counting. For orientation: Loss of bound radioactivity is the signal in a displacement assay; it reports binding, not function.
Data set [2] has as its system Pancreas. As to the kind of experiment: Biodistribution in ddY mouse pancreas assessed as per gram of tissue at 0.3 to 0.5 uCi, iv after 30 mins by gamma counting. It is filed as ADME, organism-based. To be noted: in vivo, 0.5 h.
In data set [3] the test system is Kidney. As to the kind of experiment: Biodistribution in ddY mouse kidney assessed as per gram of tissue at 0.3 to 0.5 uCi, iv after 60 mins by gamma counting. The format is ADME, organism-based. The conditions noted are these: in vivo, 1 h.
Data set [4] has as its system Blood. As to the kind of experiment: Biodistribution in ddY mouse blood assessed as per gram of tissue at 0.3 to 0.5 uCi, iv after 30 mins by gamma counting. It is filed as ADME, organism-based. The conditions noted are these: in vivo, 0.5 h.
For data set [5], the system named is Blood. As to the kind of experiment: Biodistribution in ddY mouse blood assessed as per gram of tissue at 0.3 to 0.5 uCi, iv after 2 mins by gamma counting. The format is ADME, organism-based. To be noted: in vivo.
In data set [6] the test system is Liver. As to the kind of experiment: Biodistribution in ddY mouse liver assessed as per gram of tissue at 0.3 to 0.5 uCi, iv after 2 mins by gamma counting. It is filed as ADME, organism-based. The conditions noted are these: in vivo.
In data set [7] the test system is Intestine. As to the kind of experiment: Biodistribution in ddY mouse intestine assessed as per organ at 0.3 to 0.5 uCi, iv after 30 mins by gamma counting. The format is ADME, organism-based. The conditions noted are these: in vivo, 0.5 h.
In data set [8] the test system is Intestine. As to the kind of experiment: Biodistribution in ddY mouse intestine assessed as per organ at 0.3 to 0.5 uCi, iv after 2 mins by gamma counting. The format is ADME, organism-based. To be noted: in vivo.
Data set [9] concerns Spleen. As to the kind of experiment: Biodistribution in ddY mouse spleen assessed as per gram of tissue at 0.3 to 0.5 uCi, iv after 30 mins by gamma counting. It is filed as ADME, organism-based. The conditions noted are these: in vivo, 0.5 h.
Data set [10] deals with Pancreas. As to the kind of experiment: Biodistribution in ddY mouse pancreas assessed as per gram of tissue at 0.3 to 0.5 uCi, iv after 2 mins by gamma counting. The format is ADME, organism-based. To be noted: in vivo.
Data set [11] relates to Stomach. As to the kind of experiment: Biodistribution in ddY mouse stomach assessed as per gram of tissue at 0.3 to 0.5 uCi, iv after 30 mins by gamma counting. To be noted: in vivo, 0.5 h. The format is ADME, organism-based.
For data set [12], the system named is Kidney. As to the kind of experiment: Biodistribution in ddY mouse kidney assessed as per gram of tissue at 0.3 to 0.5 uCi, iv after 2 mins by gamma counting. It is filed as ADME, organism-based. To be noted: in vivo.
Data set [13] relates to Intestine. As to the kind of experiment: Biodistribution in ddY mouse intestine assessed as per organ at 0.3 to 0.5 uCi, iv after 60 mins by gamma counting. The format is ADME, organism-based. To be noted: in vivo, 1 h.
In data set [14] the test system is Brain. As to the kind of experiment: Biodistribution in ddY mouse brain assessed as per gram of tissue at 0.3 to 0.5 uCi, iv after 2 mins by gamma counting. It is filed as ADME, organism-based. To be noted: in vivo.
In data set [15] the test system is Stomach. As to the kind of experiment: Biodistribution in ddY mouse stomach assessed as per gram of tissue at 0.3 to 0.5 uCi, iv after 10 mins by gamma counting. The format is ADME, organism-based. To be noted: in vivo.
In data set [16] the test system is Pancreas. As to the kind of experiment: Biodistribution in ddY mouse pancreas assessed as per gram of tissue at 0.3 to 0.5 uCi, iv after 60 mins by gamma counting. It is filed as ADME, organism-based. To be noted: in vivo, 1 h.
Data set [17] concerns Brain. As to the kind of experiment: Biodistribution in ddY mouse brain assessed as per gram of tissue at 0.3 to 0.5 uCi, iv after 10 mins by gamma counting. The format is ADME, organism-based. To be noted: in vivo.
The test system of data set [18] is Liver. As to the kind of experiment: Biodistribution in ddY mouse liver assessed as per gram of tissue at 0.3 to 0.5 uCi, iv after 60 mins by gamma counting. It is filed as ADME, organism-based. The conditions noted are these: in vivo, 1 h.
The test system of data set [19] is Spleen. As to the kind of experiment: Biodistribution in ddY mouse spleen assessed as per gram of tissue at 0.3 to 0.5 uCi, iv after 2 mins by gamma counting. To be noted: in vivo. The format is ADME, organism-based.
The test system of data set [20] is Brain. As to the kind of experiment: Biodistribution in ddY mouse brain assessed as per gram of tissue at 0.3 to 0.5 uCi, iv after 60 mins by gamma counting. The conditions noted are these: in vivo, 1 h. The format is ADME, organism-based.
Data set [21] has as its system Spleen. As to the kind of experiment: Biodistribution in ddY mouse spleen assessed as per gram of tissue at 0.3 to 0.5 uCi, iv after 10 mins by gamma counting. It is filed as ADME, organism-based. The conditions noted are these: in vivo.
Data set [22] concerns Blood. As to the kind of experiment: Biodistribution in ddY mouse blood assessed as per gram of tissue at 0.3 to 0.5 uCi, iv after 10 mins by gamma counting. It is filed as ADME, organism-based. To be noted: in vivo.
In data set [23] the test system is Heart. As to the kind of experiment: Biodistribution in ddY mouse heart assessed as per gram of tissue at 0.3 to 0.5 uCi, iv after 30 mins by gamma counting. It is filed as ADME, organism-based. To be noted: in vivo, 0.5 h.
Data set [24] relates to Kidney. As to the kind of experiment: Biodistribution in ddY mouse kidney assessed as per gram of tissue at 0.3 to 0.5 uCi, iv after 30 mins by gamma counting. It is filed as ADME, organism-based. The conditions noted are these: in vivo, 0.5 h.
In data set [25] the test system is Heart. As to the kind of experiment: Biodistribution in ddY mouse heart assessed as per gram of tissue at 0.3 to 0.5 uCi, iv after 10 mins by gamma counting. To be noted: in vivo. It is filed as ADME, organism-based.
The test system of data set [26] is Heart. As to the kind of experiment: Biodistribution in ddY mouse heart assessed as per gram of tissue at 0.3 to 0.5 uCi, iv after 2 mins by gamma counting. It is filed as ADME, organism-based. The conditions noted are these: in vivo.
In data set [27] the test system is Liver. As to the kind of experiment: Biodistribution in ddY mouse liver assessed as per gram of tissue at 0.3 to 0.5 uCi, iv after 10 mins by gamma counting. The format is ADME, organism-based. To be noted: in vivo.
Data set [28] deals with Pancreas. As to the kind of experiment: Biodistribution in ddY mouse pancreas assessed as per gram of tissue at 0.3 to 0.5 uCi, iv after 10 mins by gamma counting. The format is ADME, organism-based. To be noted: in vivo.
Data set [29] relates to Spleen. As to the kind of experiment: Biodistribution in ddY mouse spleen assessed as per gram of tissue at 0.3 to 0.5 uCi, iv after 60 mins by gamma counting. The format is ADME, organism-based. The conditions noted are these: in vivo, 1 h.
Data set [30] relates to Kidney. As to the kind of experiment: Biodistribution in ddY mouse kidney assessed as per gram of tissue at 0.3 to 0.5 uCi, iv after 10 mins by gamma counting. The format is ADME, organism-based. The conditions noted are these: in vivo.
For data set [31], the system named is Stomach. As to the kind of experiment: Biodistribution in ddY mouse stomach assessed as per gram of tissue at 0.3 to 0.5 uCi, iv after 2 mins by gamma counting. The format is ADME, organism-based. The conditions noted are these: in vivo.
The subject of data set [32] is Brain. As to the kind of experiment: Biodistribution in ddY mouse brain assessed as per gram of tissue at 0.3 to 0.5 uCi, iv after 30 mins by gamma counting. It is filed as ADME, organism-based. The conditions noted are these: in vivo, 0.5 h.
For data set [33], the system named is Stomach. As to the kind of experiment: Biodistribution in ddY mouse stomach assessed as per gram of tissue at 0.3 to 0.5 uCi, iv after 60 mins by gamma counting. The format is ADME, organism-based. To be noted: in vivo, 1 h.
In data set [34] the test system is Blood. As to the kind of experiment: Biodistribution in ddY mouse blood assessed as per gram of tissue at 0.3 to 0.5 uCi, iv after 60 mins by gamma counting. The format is ADME, organism-based. To be noted: in vivo, 1 h.
Data set [35] relates to Intestine. As to the kind of experiment: Biodistribution in ddY mouse intestine assessed as per organ at 0.3 to 0.5 uCi, iv after 10 mins by gamma counting. It is filed as ADME, organism-based. To be noted: in vivo.
The test system of data set [36] is Heart. As to the kind of experiment: Biodistribution in ddY mouse heart assessed as per gram of tissue at 0.3 to 0.5 uCi, iv after 60 mins by gamma counting. The format is ADME, organism-based. The conditions noted are these: in vivo, 1 h.
For data set [37], the system named is Liver. As to the kind of experiment: Biodistribution in ddY mouse liver assessed as per gram of tissue at 0.3 to 0.5 uCi, iv after 30 mins by gamma counting. The format is ADME, organism-based. To be noted: in vivo, 0.5 h.
The species named for data set [38] is Mus musculus. As to the kind of experiment: Binding affinity to beta-amyloid in wild type mouse brain after 3 mins by microscopic analysis. The format is tissue-based.
The species named for data set [39] is Mus musculus. As to the kind of experiment: Binding affinity to beta-amyloid in Tg2576 transgenic mouse brain after 3 mins by microscopic analysis. The format is tissue-based.

SMILES strings stand for the structures. The source made the active and inactive calls. The rule behind the calls is not given here.

Sequence of Amyloid-beta precursor protein (P05067 whole entry): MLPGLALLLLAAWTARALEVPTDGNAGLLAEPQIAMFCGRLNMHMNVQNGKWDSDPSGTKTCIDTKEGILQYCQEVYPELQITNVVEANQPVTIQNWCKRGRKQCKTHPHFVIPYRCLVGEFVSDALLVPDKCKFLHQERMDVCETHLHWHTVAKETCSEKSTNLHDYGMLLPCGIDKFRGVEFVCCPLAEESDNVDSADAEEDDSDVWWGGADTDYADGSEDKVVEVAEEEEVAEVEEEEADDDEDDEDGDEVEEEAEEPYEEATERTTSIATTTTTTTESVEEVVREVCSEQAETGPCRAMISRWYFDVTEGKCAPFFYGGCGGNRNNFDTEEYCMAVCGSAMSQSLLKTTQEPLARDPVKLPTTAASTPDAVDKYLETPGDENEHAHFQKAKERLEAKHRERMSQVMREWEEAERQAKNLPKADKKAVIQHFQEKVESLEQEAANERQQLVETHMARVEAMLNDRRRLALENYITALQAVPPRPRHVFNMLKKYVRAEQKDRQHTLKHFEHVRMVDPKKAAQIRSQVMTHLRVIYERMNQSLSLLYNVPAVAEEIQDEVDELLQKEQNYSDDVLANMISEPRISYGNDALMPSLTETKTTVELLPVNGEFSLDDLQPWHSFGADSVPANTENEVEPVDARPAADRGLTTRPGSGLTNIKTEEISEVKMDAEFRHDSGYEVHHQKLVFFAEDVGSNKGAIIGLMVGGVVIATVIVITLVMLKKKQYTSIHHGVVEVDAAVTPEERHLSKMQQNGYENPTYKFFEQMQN

For the molecule `COc1ccc(C#CC(=O)c2ccc(I)cc2)cc1`, the Ki in [1] came to 13.7 nM.

As to `CN(C)c1ccc(C#CC(=O)c2ccc([125I])cc2)cc1`, the Drug uptake in data set [2] stood at 2.57 %ID; in data set [3], 7.75 %ID; in data set [4], 3.94 %ID; in [5], 6.19 %ID; in data set [6], 19.96 %ID; in data set [7], 12.04 %ID. The Drug uptake in data set [8] came to 2.73 %ID; in data set [9] it was 5.47 %ID; in data set [10], 3.9 %ID; in data set [11], 2.35 %ID; in [12], 10.45 %ID; in data set [13], 14.02 %ID. In addition, the Drug uptake in [14] is 1.55 %ID; in data set [15] it was 2.97 %ID; in data set [16], 2.09 %ID; in data set [17], 1.23 %ID; in data set [18], 10.06 %ID; in data set [19], 4.41 %ID. Besides, the Drug uptake came to 0.76 %ID in [20]; 5.19 %ID in [21]; 5.44 %ID in data set [22]; 6.03 %ID in data set [23]; 8.34 %ID in data set [24]; 7.53 %ID in data set [25]. For the same molecule, the Drug uptake in [26] was 10 %ID; in data set [27], 15.29 %ID; in [28], 3.39 %ID; in data set [29] it was 4.43 %ID; in data set [30] it was 9.81 %ID; in data set [31], 0.75 %ID. For the same molecule, the Drug uptake is 0.93 %ID in [32]; 1.46 %ID in data set [33]; 3.07 %ID in data set [34]; 8.44 %ID in [35]; 4.94 %ID in data set [36]; 12.02 %ID in [37].

In turn, `CN(C)c1ccc(C#CC(=O)c2ccc(F)cc2)cc1` displayed a Ki in [1] of 20.4 nM.

For `CN(C)c1ccc(C#CC(=O)c2ccc(I)cc2)cc1`, the result in [38] was inactive. Also, in data set [39], the outcome was Active. This molecule also registered a Ki in data set [1] of 6 nM.

`O=C(C#Cc1ccc(O)cc1)c1ccc(I)cc1` had a Ki in [1] of 326 nM.

A word on the Ki: it is the dissociation constant of the complex between target and ligand, obtained from inhibition or displacement. A higher Ki goes with weaker binding.
